One assay relates to membrane GLUT4. As to the kind of experiment: Western blotting of skeletal muscular membrane GLUT4 in HFD-fed mice. Format: in vivo, C57BL/6J mice. As to conditions: skeletal muscle, AnK 10, 20, 40, Feno 250, Metf 300 mg/kg/day, as compared with the HF group. The source says: (§1) The 4-week old male C57BL/6J mice (total amount n=63) were obtained from the National Laboratory Animal Center (Taipei, Taiwan). After acclimatization for one week, all of the mice were randomly assigned into a control (CON) group and a high-fat diet (HFD) group. […] After HFD feeding for 8 weeks, the HFD group was randomly subdivided into six groups (n=9 per group) receiving different treatments and fed on HFD. […] The HF+AnK1, HF+AnK2, and HF+AnK3 groups are collectively termed AnK-treated HFD groups in the following examples. The CON mice were administered vehicle. All treatments were administered via oral gavage once daily. After administration for 4 weeks, all mice were fasted 12 hours, and blood was collected from the retro-orbital sinus under ether anesthesia. At the end of the experiment, the mice were sacrificed via carbon dioxide inhalation. Liver, adipose tissue, and skeletal muscle were collected and immediately stored at −80° C. for target gene analysis.
About 0.1 g of liver tissue, skeletal muscle, or adipose tissue was used for the homogenate samples. Samples were powdered under liquid nitrogen and homogenized for 20 seconds in 500 μL buffer containing 20 mM Tris-HCl (pH 7.4 at 4° C.), 2% SDS, 5 mM EDTA, 5 mM EGTA, 1 mM dithiothreitol (DTT), 100 mM NaF, 2 mM sodium vanadate, 0.5 mM phenylmethylsulfonyl fluoride, 10 μg/mL leupeptin, and 10 μL/mL pepstatin. The total membrane fraction was used for measurement. The protein concentration in supernatant was determined with a BCA protein assay kit (Thermo Scientific, Rockford, Ill., USA). […] The membrane was blocked with 5% slim milk in Tris-buffered saline (TBS)(Amersham BioSciences, Uppsala, Sweden) containing 0.05% Tween-20 (Bio Rad, CA, USA) and incubated overnight at 4° C. with antibodies at 1:200 dilution. […] Immunoreactive bands were detected with ECL reagent kit (GE Healthcare BioSciences, Buckinghamshire, UK). The intensity of Western blot signals was analyzed using AlphaEase FC software (Alpha Innotech Corporation, Randburg, South Africa). […]
On the technique in general: Immunoblotting shows a protein as a band on a membrane.

The test system of assay [1] is high-fat diet-fed C57BL/6J mouse. As to the kind of experiment: Blood glucose levels and biochemical parameters in HFD-fed mice. Format: in vivo, C57BL/6J mice. As to conditions: for blood glucose levels: fasting, week 12, oral gavage once daily 4 weeks; for blood glucose levels / blood adiponectin levels / circulating free fatty acid (FFA) levels / circulating total cholesterol (TC) levels / circulating triglycerides (TG) levels / levels of blood insulin / levels of blood leptin: AnK 10, 20, 40, Feno 250, Metf 300 mg/kg/day; for blood adiponectin levels / circulating free fatty acid (FFA) levels / circulating total cholesterol (TC) levels / circulating triglycerides (TG) levels / levels of blood insulin / levels of blood leptin: oral gavage once daily 4 weeks. The method, then: Animal studies were performed and approved under the guidelines of the Institutional Animal Care and Use Committee in Taiwan (12 Mar. 2015). […] After acclimatization for one week, all of the mice were randomly assigned into a control (CON) group and a high-fat diet (HFD) group. For the following 12 weeks, the CON group (n=9) received a control diet or a low-fat diet (Diet 12450B, Research Diets, Inc., New Brunswick, N.J., USA), while the HFD group (n=54) received a high-fat diet (Diet 12451, Research Diets, New Brunswick, N.J., USA). […] After HFD feeding for 8 weeks, the HFD group was randomly subdivided into six groups (n=9 per group) receiving different treatments and fed on HFD. […] The HF+AnK1, HF+AnK2, and HF+AnK3 groups are collectively termed AnK-treated HFD groups in the following examples. The CON mice were administered vehicle. All treatments were administered via oral gavage once daily. After administration for 4 weeks, all mice were fasted 12 hours, and blood was collected from the retro-orbital sinus under ether anesthesia. At the end of the experiment, the mice were sacrificed via carbon dioxide inhalation. Liver, adipose tissue, and skeletal muscle were collected and immediately stored at −80° C. for target gene analysis. A portion of the blood samples obtained from the retro-orbital sinus of fasted mice were immediately used to measure blood glucose levels using Sidekick glucose analyzer (YSI 1500, YSI Incorporated, Yellow Springs, USA) according to the glucose oxidase method. Heparin (30 units/mL, Sigma) was added into other portions of the blood samples. Plasma samples for the following analysis were prepared from these blood samples via centrifugation at 1600 g for 15 minutes at 4° C., followed by plasma separation within 30 minutes. Blood levels of triglycerides (TG), total cholesterol (TC), and free fatty acids (FFA) were determined using commercial assay kits in accordance with manufacturer's directions (Triglycerides-E test, Cholesterol-E test and FFA-C test, Wako Pure Chemical, Osaka, Japan). Blood levels of insulin, leptin, and adiponectin were measured by enzyme-linked immunosorbent assay (mouse insulin ELISA kit, Mercodia, Uppsala, Sweden; mouse leptin ELISA kit, Morinaga, Yokohama, Japan; mouse adiponectin ELISA kit, Crystal Chem International, Downers Grove, Ill., USA).

A further assay deals with SREBP2. As to the kind of experiment: Liver mRNA by semi-quantitative RT-PCR: SREBP2. Format: in vivo, C57BL/6J mice. The following applies: HFD-fed mice, oral gavage once daily 4 weeks, AnK 10, 20, 40, Feno 250, Metf 300 mg/kg/day, vs HF group.
Text: as §1, with “At the end of the experiment, the mice were sacrificed via carbon dioxide inhalation. Liver, adipose tissue, and skeletal muscle were collected and immediately stored at −80° C. for target gene analysis.” left out
Total RNA from liver tissue of mice was isolated with a Trizol Reagent (Molecular Research Center, Inc., Cincinnati, Ohio, USA) according to the manufacturer's instructions. The integrity of the extracted total RNA was examined by 2% agarose gel electrophoresis, and the RNA concentration was determined by the ultraviolet (UV) light absorbency at 260 nm and 280 nm (Spectrophotometer U-2800A, Hitachi). […]
Levels of mRNA of target genes were quantified by semi-quantitative reverse transcription polymerase chain reaction (RT-PCR). […] PCR products were analyzed by 2% agarose gel and stained with ethidium bromide.

Assay [2] deals with human liver cancer Hep3B cells. As to conditions: cited from earlier work.

Here are results for two compounds from patent US10124012B2, “Method for treatment of hyperglycemia and hyperlipidemia” (priority 2016, dated 2018).

`CN(C)C(=N)N=C(N)N` [Metf, metformin, reference compound]: in the assay with membrane GLUT4, the “increase of membrane GLUT4 levels” value worked out at 1.86 fold. In assay [1] (vs HF group), the blood glucose levels result is reported as “significantly reduced”, the blood adiponectin levels entry is on record as “markedly enhanced”, the “circulating free fatty acid (FFA) levels” value is “decreased” and the “circulating total cholesterol (TC) levels” value was “decreased”. In assay [1] (vs HF group), the “circulating triglycerides (TG) levels” value is reported as “decreased”, the “levels of blood insulin” value is listed as “effectively reduced” and the “levels of blood leptin” value is reported as “effectively reduced”. Further, in the assay on SREBP2, the “mRNA levels of SREBP2” value is “significantly decreased”.
As to `C=C(CC[C@@H](C)[C@H]1CC[C@H]2C3=C(C(=O)C[C@]12C)[C@@]1(C)CC[C@@H](O)[C@](C)(O)[C@@H]1C[C@@H]3O)C(C)C(=O)O` (stereo partly drawn) [AnK, 3α,4β,7β-trihydroxy-4α-methylergosta-8,24(28)-dien-11-on-25S-26-oic acid], the “increase of membrane GLUT4 levels” value in the assay with membrane GLUT4 is 1.52-2.20 fold. In addition, the “glucose-lowering effect compared with metformin” value in assay [1] (AnK 40 mg/kg body weight/day vs metformin 300 mg/kg/day) is reported as “comparable to that of metformin”. Further, in assay [1] (AnK at 10, 20, and 40 mg/kg body weight/day, vs HF group), the “lowering of blood glucose levels” value is 26.8-36.0%. The “decrease of circulating TG” value in assay [1] (AnK treatment (10, 20, 40 mg/kg/day), vs HF group) is 28.5-32.8%. In addition, the “TG-lowering effect compared with fenofibrate” value in assay [1] (AnK treatment vs fenofibrate 250 mg/kg/day) was “comparable to the TG-lowering effect of fenofibrate”. Further, in assay [1] (vs HF group), the blood glucose levels entry is listed as “significantly reduced”, the blood adiponectin levels result is listed as “markedly enhanced”, the “circulating free fatty acid (FFA) levels” value is recorded as “decreased” and the “circulating total cholesterol (TC) levels” value is reported as “decreased”. Also, in assay [1] (vs HF group), the “circulating triglycerides (TG) levels” value is “decreased”, the “levels of blood insulin” value was “effectively reduced” and the “levels of blood leptin” value is reported as “effectively reduced”. Moreover, the apoptotic cell death entry in assay [2] is given as “inducing apoptotic cell death”. Moreover, the “mRNA levels of SREBP2” value with SREBP2 is listed as “significantly decreased”.
